# Data: publication PMC9780888, “4-Isobutylmethcathinone—A Novel Synthetic Cathinone with High In Vitro Cytotoxicity and Strong Receptor Binding Preference of Enantiomers” (Pharmaceuticals, 2022)
# Columns and labels:
# CaCo-2 cells = assay: Fluorescence microscopy of cell morphology, CaCo-2; format: cell-based, human; conditions: CaCo-2, 24-h treatment, 100, 300 and 500 µM tested; cells smaller, roundish, in clusters
# Excerpt: In addition to the evaluation of IBMcat cytotoxicity in various cell lines, its impact on cell morphology was also examined in CaCo-2 and MRC-5 cells after 24-h treatment. F-actin and cell nuclei were visualized in these cells treated with 100, 300, and 500-µM concentrations of IBMcat and its enantiomers. IBMcat (Figure 7) induced a considerable change in CaCo-2 cell morphology already from 300-µM concentration, the cells were smaller, bore roundish shapes, and grew in clusters when compared to control untreated cells. This could be ascribed to the substantial toxicity of IBMcat manifested already after 24 h at this concentration. No difference was observed between the individual enantiomers.
# A total of 1 × 10^5 CaCo-2 and MRC-5 cells were seeded into 35-mm glass-bottom dishes for live-cell imaging ((#1.5, MatTek, USA; Ibidi dishes, Germany). After 16 h, the cells were gently washed with phosphate-buffered saline (PBS; pH 7.4), and then, cultivation media containing 100–500 µM IBMCat was added. Untreated cells and cells treated with the vehicle served as controls. After 24 h of the cell incubation with IBMCat, the cells were gently washed with PBS and then fixed with a 4% solution of formaldehyde (methanol-free, Thermo Fisher, USA) in PBS for 20 min. at 22 °C in the dark. Then, the fixative was discarded, and the cells were washed twice with PBS. […]
# [1] = target: T1, ADRA2C (alpha-2C adrenergic receptor) (Homo sapiens, UniProt P18825); assay: PRESTO-Tango β-arrestin 2 recruitment assay, ADRA2C; format: cell-based; conditions: 500 nM
# T1 construct: Tango construct (TEV cleavage site and tTA, as described for the dopamine receptor plasmids); host or cells: HTLA (HEK 293-derived)
# Method: (§1) The HTLA cell line was used for the PRESTO-Tango β-arrestin recruitment assay. The HTLA cells were provided as a gift from the laboratory of Bryan Roth (Roth Lab, USA). It is a human cell line derived from human embryonic kidney cells (HEK 293) stably expressing β-arrestin in a fusion with the tobacco etch virus protease (TEV) protease and the luciferase gene under the control of the transcription factor tetracycline transcriptional activator (tTA). The HTLA cells were cultured under standard incubation conditions (37 °C, 5% CO2, 95% humidity) in DMEM with 10% FBS. […]
# (§2) The transfected HTLA cells were incubated for 24 h, and then 1 × 10^4 cells were seeded per well of a white 96-well clear bottom plate (Brand, Germany) in 40 μL of DMEM with 1% charcoal-stripped FBS (Thermo Fisher Scientific, USA). […] After 5 min., the luminescence was measured using a multi-mode microplate reader SpectraMax iD5 (Molecular Devices, San Jose, CA, USA) measuring the entire wavelength spectrum. All samples were measured in quadruplicates. The data were evaluated by Prism 7 software (GraphPad, […], CA, USA). […]
# (§3) The error bar represents standard deviation from four replicates. The data were processed and evaluated by GraphPad Prism Software using one-way ANOVA: * p<0.05; ** p<0.01; *** […]
# [2] = target: T2, ADRB1 (beta-1 adrenergic receptor) (Homo sapiens, UniProt P08588); assay: PRESTO-Tango β-arrestin 2 recruitment assay, ADRB1; format: cell-based; conditions: ADRB1, 500 nM
# T2 construct: Tango construct (TEV cleavage site and tTA, as described for the dopamine receptor plasmids); host or cells: HTLA (HEK 293-derived)
# Method: as §1, §2, §3
# [3] = target: T3, HTR2B (5-hydroxytryptamine receptor 2B) (Homo sapiens, UniProt P41595); assay: PRESTO-Tango β-arrestin 2 recruitment assay, HTR2B; format: cell-based; conditions: 0-500 nM
# T3 construct: Tango construct (TEV cleavage site and tTA, as described for the dopamine receptor plasmids); host or cells: HTLA (HEK 293-derived)
# Method: as §1
# (§4) The transfected HTLA cells were incubated for 24 h, and then 1 × 10^4 cells were seeded per well of a white 96-well clear bottom plate (Brand, Germany) in 40 μL of DMEM with 1% charcoal-stripped FBS (Thermo Fisher Scientific, USA). […] After 5 min., the luminescence was measured using a multi-mode microplate reader SpectraMax iD5 (Molecular Devices, San Jose, CA, USA) measuring the entire wavelength spectrum. All samples were measured in quadruplicates. The data were evaluated by Prism 7 software (GraphPad, San Jose, CA, USA).
# (§5) Figure S13: β-arrestin 2 recruitment PRESTO-Tango assay: activation of the serotonin receptors. […] The data were processed and evaluated by GraphPad Prism Software using one-way […]
# [4] = target: T4, HTR2A (5-hydroxytryptamine receptor 2A) (Homo sapiens, UniProt P28223); assay: PRESTO-Tango β-arrestin 2 recruitment assay, HTR2A; format: cell-based; conditions: 0-500 nM
# T4 construct: Tango construct (TEV cleavage site and tTA, as described for the dopamine receptor plasmids); host or cells: HTLA (HEK 293-derived)
# Method: as §1, §4, §5
# T2 sequence (P08588 whole entry): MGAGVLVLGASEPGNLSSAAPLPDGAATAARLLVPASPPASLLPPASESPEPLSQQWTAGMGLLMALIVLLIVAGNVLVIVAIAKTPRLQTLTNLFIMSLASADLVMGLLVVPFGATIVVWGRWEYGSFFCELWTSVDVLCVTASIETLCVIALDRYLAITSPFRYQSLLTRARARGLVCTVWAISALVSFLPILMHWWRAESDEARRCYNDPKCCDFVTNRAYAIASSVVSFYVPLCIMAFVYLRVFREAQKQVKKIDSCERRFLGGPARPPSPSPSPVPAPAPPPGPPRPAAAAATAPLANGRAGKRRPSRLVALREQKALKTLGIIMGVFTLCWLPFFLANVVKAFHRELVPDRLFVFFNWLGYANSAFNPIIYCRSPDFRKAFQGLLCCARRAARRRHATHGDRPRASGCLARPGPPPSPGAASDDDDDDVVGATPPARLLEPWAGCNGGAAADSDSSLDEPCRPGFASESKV
# T1 sequence (P18825 whole entry): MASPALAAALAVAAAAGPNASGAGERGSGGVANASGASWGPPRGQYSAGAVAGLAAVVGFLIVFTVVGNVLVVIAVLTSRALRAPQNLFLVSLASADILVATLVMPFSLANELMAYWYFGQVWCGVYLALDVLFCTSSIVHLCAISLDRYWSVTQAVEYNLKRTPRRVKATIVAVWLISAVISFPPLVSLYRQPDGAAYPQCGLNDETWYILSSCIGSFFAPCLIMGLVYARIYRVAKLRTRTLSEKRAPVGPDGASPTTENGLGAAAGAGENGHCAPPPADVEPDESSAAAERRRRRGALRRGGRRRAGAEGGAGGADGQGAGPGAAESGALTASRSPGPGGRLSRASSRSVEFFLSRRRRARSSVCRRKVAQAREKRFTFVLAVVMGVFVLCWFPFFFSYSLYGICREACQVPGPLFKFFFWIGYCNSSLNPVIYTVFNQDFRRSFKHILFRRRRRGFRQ
# T3 sequence (P41595 whole entry): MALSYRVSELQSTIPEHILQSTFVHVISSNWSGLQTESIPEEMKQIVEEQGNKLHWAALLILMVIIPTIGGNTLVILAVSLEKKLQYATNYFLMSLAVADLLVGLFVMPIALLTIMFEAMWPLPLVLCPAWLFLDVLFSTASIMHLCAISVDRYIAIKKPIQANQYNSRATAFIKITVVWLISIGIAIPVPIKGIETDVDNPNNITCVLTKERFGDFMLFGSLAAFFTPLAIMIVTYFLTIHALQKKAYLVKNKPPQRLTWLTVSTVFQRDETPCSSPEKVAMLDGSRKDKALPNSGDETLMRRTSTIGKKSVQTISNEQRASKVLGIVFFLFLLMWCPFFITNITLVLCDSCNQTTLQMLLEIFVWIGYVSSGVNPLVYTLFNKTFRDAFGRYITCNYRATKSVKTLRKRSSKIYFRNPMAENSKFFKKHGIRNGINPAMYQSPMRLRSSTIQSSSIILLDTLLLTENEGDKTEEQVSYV
# T4 sequence (P28223 whole entry): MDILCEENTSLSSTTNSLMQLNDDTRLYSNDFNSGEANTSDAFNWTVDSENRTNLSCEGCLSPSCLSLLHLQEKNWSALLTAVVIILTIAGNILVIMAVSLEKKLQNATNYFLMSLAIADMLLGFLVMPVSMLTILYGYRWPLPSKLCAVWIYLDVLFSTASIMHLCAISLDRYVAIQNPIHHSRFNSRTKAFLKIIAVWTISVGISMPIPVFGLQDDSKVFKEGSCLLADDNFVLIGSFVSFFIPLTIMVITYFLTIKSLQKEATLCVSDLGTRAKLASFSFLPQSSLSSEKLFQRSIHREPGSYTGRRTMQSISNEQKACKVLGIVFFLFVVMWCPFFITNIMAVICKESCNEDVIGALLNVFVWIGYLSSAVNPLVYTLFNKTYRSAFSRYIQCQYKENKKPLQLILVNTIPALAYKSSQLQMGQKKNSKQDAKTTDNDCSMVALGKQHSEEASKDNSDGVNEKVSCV
structure (smiles),measurement,setting,value
"CNC(C)C(=O)c1ccc(CC(C)C)cc1.Cl (centres unmarked) [IBMcat, 4-isobutylmethcathinone hydrochloride]",concentration from which a considerable change in cell morphology was induced,CaCo-2 cells,≥ 300 µM
same,increase in RLU compared to untreated control,[1],3.7 fold
same,increase in the luminescence signal,[2],3 fold
same,agonistic activity for HTR2B,[3],did not exhibit any agonistic activity
same,agonistic activity for HTR2A,[4],did not exhibit any agonistic activity
